# Laboratory results reported in publication PMC9229919, “4-Aminoquinoline-Based Adamantanes as Potential Anticholinesterase Agents in Symptomatic Treatment of Alzheimer’s Disease” (Pharmaceutics, 2022).
# Like-named read-outs stand apart in the source and are kept apart here.
# How the values were obtained:
# [1] = molecular target: T1, purified human BChE (Homo sapiens, UniProt P06276); experiment: biochemical; format: biochemical
# T1 construct: possibly also a gift of Dr Florian Nachon (the sentence is ambiguous)
# Summary of the method: (§1)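 Modified Ellman assay with acetylthiocholine and DTNB in 0.1 M sodium phosphate pH 7.4 (enzymes diluted with 0.1% BSA), ≤0.2% DMSO, 25 °C. At least three inhibitor concentrations per substrate level; Ki,app from Hunter–Downs equation, Ki from y-intercept and inhibition type from Ki,app vs [S].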
# [2] = molecular target: T2, recombinant human AChE (Homo sapiens, UniProt P22303); experiment: biochemical; format: biochemical; conditions: for IS: IS = Ki(BChE)/Ki(AChE), IS > 1 selective to AChE
# T2 construct: gift of Dr Florian Nachon (Armed Forces Biomedical Research Institute, Brétigny-sur-Orge, France)
# Summary of the method: as §1
# [3] = Ferric reducing antioxidant power (FRAP) assay; conditions: mean ± standard error of three experiments;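 note: expressed as µM Fe2+ equivalents from an FeSO4·7H2O standard curve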
# Summary of the method: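 Compounds at 10 and 100 µM were mixed with FRAP reagent (300 mM acetate buffer pH 3.6, TPTZ in HCl, FeCl3, 10:1:1) and incubated 60 min at 37 °C. Fe^2+-TPTZ formation read at 593 nm against a blank. Values derived from an Fe2SO4·7H2O standard curve, three independent experiments.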
# [4] = Reverse-phase thin-layer chromatographic lipophilicity (RF, RM0); format: physicochemical; conditions: for RM0: intercept of RM = RM0 + bC; for b: slope of RM = RM0 + bC; for RF, Methanol/Water/Hydrochloric acid (conc.), mobile phase I / RF, Dioxane/Water/Hydrochloric acid (conc.), mobile phase II / RF, Methanol/Water/Hydrochloric acid (conc.), mobile phase II / RF, Acetone/Water/Hydrochloric acid (conc.), mobile phase III / RF, Dioxane/Water/Hydrochloric acid (conc.), mobile phase III / RF, Methanol/Water/Hydrochloric acid (conc.), mobile phase III / RF, Dioxane/Water/Hydrochloric acid (conc.), mobile phase IV / RF, Acetone/Water/Hydrochloric acid (conc.), mobile phase IV / RF, Methanol/Water/Hydrochloric acid (conc.), mobile phase IV / RF, Acetone/Water/Hydrochloric acid (conc.), mobile phase IX / RF, Methanol/Water/Hydrochloric acid (conc.), mobile phase IX / RF, Dioxane/Water/Hydrochloric acid (conc.), mobile phase V / RF, Acetone/Water/Hydrochloric acid (conc.), mobile phase V / RF, Methanol/Water/Hydrochloric acid (conc.), mobile phase V / RF, Dioxane/Water/Hydrochloric acid (conc.), mobile phase VI / RF, Acetone/Water/Hydrochloric acid (conc.), mobile phase VI / RF, Methanol/Water/Hydrochloric acid (conc.), mobile phase VI / RF, Acetone/Water/Hydrochloric acid (conc.), mobile phase VII / RF, Methanol/Water/Hydrochloric acid (conc.), mobile phase VII / RF, Acetone/Water/Hydrochloric acid (conc.), mobile phase VIII / RF, Methanol/Water/Hydrochloric acid (conc.), mobile phase VIII: RP-18 silica; for RF, Methanol/Water/Hydrochloric acid (conc.), mobile phase I: I = 90%MeOH/5%H2O/5%HCl; for RF, Dioxane/Water/Hydrochloric acid (conc.), mobile phase II: II = 80%Dioxane/15%H2O/5%HCl; for RF, Methanol/Water/Hydrochloric acid (conc.), mobile phase II: II = 85%MeOH/10%H2O/5%HCl; for RF, Acetone/Water/Hydrochloric acid (conc.), mobile phase III: III = 70%AC/25%H2O/5%HCl; for RF, Dioxane/Water/Hydrochloric acid (conc.), mobile phase III: III = 70%Dioxane/25%H2O/5%HCl; for RF, Methanol/Water/Hydrochloric acid (conc.), mobile phase III: III = 80%MeOH/15%H2O/5%HCl; for RF, Dioxane/Water/Hydrochloric acid (conc.), mobile phase IV: IV = 60%Dioxane/35%H2O/5%HCl; for RF, Acetone/Water/Hydrochloric acid (conc.), mobile phase IV: IV = 65%AC/30%H2O/5%HCl; for RF, Methanol/Water/Hydrochloric acid (conc.), mobile phase IV: IV = 75%MeOH/20%H2O/5%HCl; for RF, Acetone/Water/Hydrochloric acid (conc.), mobile phase IX: IX = 40%AC/55%H2O/5%HCl; for RF, Methanol/Water/Hydrochloric acid (conc.), mobile phase IX: IX = 50%MeOH/45%H2O/5%HCl; for RF, Dioxane/Water/Hydrochloric acid (conc.), mobile phase V: V = 50%Dioxane/45%H2O/5%HCl; for RF, Acetone/Water/Hydrochloric acid (conc.), mobile phase V: V = 60%AC/35%H2O/5%HCl; for RF, Methanol/Water/Hydrochloric acid (conc.), mobile phase V: V = 70%MeOH/25%H2O/5%HCl; for RF, Dioxane/Water/Hydrochloric acid (conc.), mobile phase VI: VI = 40%Dioxane/55%H2O/5%HCl; for RF, Acetone/Water/Hydrochloric acid (conc.), mobile phase VI: VI = 55%AC/40%H2O/5%HCl; for RF, Methanol/Water/Hydrochloric acid (conc.), mobile phase VI: VI = 65%MeOH/30%H2O/5%HCl; for RF, Acetone/Water/Hydrochloric acid (conc.), mobile phase VII: VII = 50%AC/45%H2O/5%HCl; for RF, Methanol/Water/Hydrochloric acid (conc.), mobile phase VII: VII = 60%MeOH/35%H2O/5%HCl; for RF, Acetone/Water/Hydrochloric acid (conc.), mobile phase VIII: VIII = 45%AC/50%H2O/5%HCl; for RF, Methanol/Water/Hydrochloric acid (conc.), mobile phase VIII: VIII = 55%MeOH/40%H2O/5%HCl
# Summary of the method: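 Reverse-phase TLC using mobile phases of methanol, acetone or dioxane with water and hydrochloric acid. Methanol varied in 10% steps; development distance 4.5 cm, ambient temperature (22±2 °C). RF measured and RM0 derived from retention.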
# [5] = ± standard error, 25 °C, ATCh substrate, read-out: Ki BChE
# [6] = ± standard error, 25 °C, ATCh substrate, read-out: Ki AChE
# [7] = Acetone/Water/Hydrochloric acid (conc.)
# [8] = Dioxane/Water/Hydrochloric acid (conc.)
# [9] = Methanol/Water/Hydrochloric acid (conc.)
# T1 sequence (P06276 29-602): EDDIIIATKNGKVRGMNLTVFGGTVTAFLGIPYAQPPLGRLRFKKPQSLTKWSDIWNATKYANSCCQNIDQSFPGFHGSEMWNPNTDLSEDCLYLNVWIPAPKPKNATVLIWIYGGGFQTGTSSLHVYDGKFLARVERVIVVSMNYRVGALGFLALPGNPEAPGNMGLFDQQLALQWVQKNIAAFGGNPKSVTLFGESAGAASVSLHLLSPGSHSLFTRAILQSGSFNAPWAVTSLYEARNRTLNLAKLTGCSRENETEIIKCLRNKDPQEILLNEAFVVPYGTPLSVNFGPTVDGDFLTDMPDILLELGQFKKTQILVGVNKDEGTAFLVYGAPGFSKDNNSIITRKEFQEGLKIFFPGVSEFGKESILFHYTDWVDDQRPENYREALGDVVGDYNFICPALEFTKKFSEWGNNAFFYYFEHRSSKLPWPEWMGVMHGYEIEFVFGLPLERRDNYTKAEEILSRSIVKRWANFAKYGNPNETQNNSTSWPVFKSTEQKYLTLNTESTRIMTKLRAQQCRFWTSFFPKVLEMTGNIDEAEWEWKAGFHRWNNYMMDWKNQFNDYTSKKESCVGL
# T2 sequence (P22303 32-614): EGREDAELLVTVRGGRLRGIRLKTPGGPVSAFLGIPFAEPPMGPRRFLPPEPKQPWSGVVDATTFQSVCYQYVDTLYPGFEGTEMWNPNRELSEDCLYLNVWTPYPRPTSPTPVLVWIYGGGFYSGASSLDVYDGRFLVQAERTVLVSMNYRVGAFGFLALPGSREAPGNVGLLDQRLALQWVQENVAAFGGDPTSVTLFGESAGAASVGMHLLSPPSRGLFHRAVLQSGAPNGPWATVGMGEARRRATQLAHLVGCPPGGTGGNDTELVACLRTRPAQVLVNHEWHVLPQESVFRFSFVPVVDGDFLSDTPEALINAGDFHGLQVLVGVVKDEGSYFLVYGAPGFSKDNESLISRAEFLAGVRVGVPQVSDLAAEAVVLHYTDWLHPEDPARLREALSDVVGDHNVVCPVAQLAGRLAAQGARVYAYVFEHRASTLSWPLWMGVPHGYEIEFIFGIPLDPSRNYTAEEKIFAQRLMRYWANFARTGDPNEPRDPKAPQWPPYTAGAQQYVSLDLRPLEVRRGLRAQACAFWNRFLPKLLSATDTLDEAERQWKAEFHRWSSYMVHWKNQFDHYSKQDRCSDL
SMILES,"Ki [1, 5]",IS [2],"Ki [2, 6]",FRAP ([3]; 10 µM compound),FRAP ([3]; 100 µM compound),"RM0 [4, 7]","b [4, 7]","RM0 [4, 8]","b [4, 8]","RM0 [4, 9]","b [4, 9]","RF, Methanol/Water/Hydrochloric acid (conc.), mobile phase I [4]","RF, Dioxane/Water/Hydrochloric acid (conc.), mobile phase II [4]","RF, Methanol/Water/Hydrochloric acid (conc.), mobile phase II [4]","RF, Acetone/Water/Hydrochloric acid (conc.), mobile phase III [4]","RF, Dioxane/Water/Hydrochloric acid (conc.), mobile phase III [4]","RF, Methanol/Water/Hydrochloric acid (conc.), mobile phase III [4]","RF, Dioxane/Water/Hydrochloric acid (conc.), mobile phase IV [4]","RF, Acetone/Water/Hydrochloric acid (conc.), mobile phase IV [4]","RF, Methanol/Water/Hydrochloric acid (conc.), mobile phase IV [4]",other results
CC(CCNCC12CC3CC(CC(C3)C1)C2)Nc1ccnc2ccccc12 (stereo not drawn) [Compound 15],0.65 ± 0.04 µM,0.9,0.74 ± 0.03 µM,9.3 ± 2.2 µM,224 ± 21 µM,1.742,2.801,0.8903,1.797,2.31,3.062,0.71,0.74,0.67,0.6,0.7,0.54,0.7,0.55,0.51,"RF, Acetone/Water/Hydrochloric acid (conc.), mobile phase IX [4]: 0.15; RF, Methanol/Water/Hydrochloric acid (conc.), mobile phase IX [4]: 0.11; RF, Dioxane/Water/Hydrochloric acid (conc.), mobile phase V [4]: 0.51; RF, Acetone/Water/Hydrochloric acid (conc.), mobile phase V [4]: 0.45; RF, Methanol/Water/Hydrochloric acid (conc.), mobile phase V [4]: 0.45; RF, Dioxane/Water/Hydrochloric acid (conc.), mobile phase VI [4]: 0.35; RF, Acetone/Water/Hydrochloric acid (conc.), mobile phase VI [4]: 0.4; RF, Methanol/Water/Hydrochloric acid (conc.), mobile phase VI [4]: 0.36; RF, Acetone/Water/Hydrochloric acid (conc.), mobile phase VII [4]: 0.35; RF, Methanol/Water/Hydrochloric acid (conc.), mobile phase VII [4]: 0.27; RF, Acetone/Water/Hydrochloric acid (conc.), mobile phase VIII [4]: 0.29; RF, Methanol/Water/Hydrochloric acid (conc.), mobile phase VIII [4]: 0.2"
CC(CCNCCC12CC3CC(CC(C3)C1)C2)Nc1ccnc2ccccc12 (stereo not drawn) [Compound 16],0.38 ± 0.03 µM,0.7,0.52 ± 0.02 µM,4.1 ± 0.4 µM,46 ± 4 µM,1.94,3.086,0.9042,1.814,2.5841,3.345,0.7,0.74,0.64,0.59,0.7,0.51,0.7,0.54,0.5,"Ki ([1]; logarithm of Ki in µM, BChE, dependent variable of the QSAR model, read-out: Y Measured 2 log(ki)Bche, log (Ki/µM BChE) (converted)): 0.38 µM; Ki ([2]; log (Ki/µM AChE), read-out: Y Measured 1 log(ki)Ache (converted)): 0.52 µM; RF, Acetone/Water/Hydrochloric acid (conc.), mobile phase IX [4]: 0.12; RF, Methanol/Water/Hydrochloric acid (conc.), mobile phase IX [4]: 0.09; RF, Dioxane/Water/Hydrochloric acid (conc.), mobile phase V [4]: 0.5; RF, Acetone/Water/Hydrochloric acid (conc.), mobile phase V [4]: 0.44; RF, Methanol/Water/Hydrochloric acid (conc.), mobile phase V [4]: 0.42; RF, Dioxane/Water/Hydrochloric acid (conc.), mobile phase VI [4]: 0.35; RF, Acetone/Water/Hydrochloric acid (conc.), mobile phase VI [4]: 0.39; RF, Methanol/Water/Hydrochloric acid (conc.), mobile phase VI [4]: 0.31; RF, Acetone/Water/Hydrochloric acid (conc.), mobile phase VII [4]: 0.33; RF, Methanol/Water/Hydrochloric acid (conc.), mobile phase VII [4]: 0.21; RF, Acetone/Water/Hydrochloric acid (conc.), mobile phase VIII [4]: 0.26; RF, Methanol/Water/Hydrochloric acid (conc.), mobile phase VIII [4]: 0.15"
